Consider 5 molecules from US20240342204A1, “METHOD OF TREATING VETERINARY VIRAL DISEASES” (Intervet Inc., priority 2021, published 2024).

Assay [1] deals with Feline Infectious Peritonitis Virus (FIPV) strain 79-1146. Kind of assay: CPE antiviral assay for FIPV in Crandell-Rees Feline Kidney (CrFK) cells. The assay is classed as cell-based.
Assay [2] relates to feline infectious peritonitis (FIP) virus. The settings on record: tissue culture and experimental cat infection studies; cited from earlier work.
Assay [3] deals with feline calicivirus (FCV) field strain 255. The experiment in a line: CrFK cell based antiviral activity against Feline Calicivirus (CPE, CellTiterGlo). The settings on record: 48 h, read-out: ED50 of NHC against Feline calicivirus. On the procedure: Example 2 CrFK Cell Based Antiviral Activity of NHC Against Feline Calicivirus (FCV)
Monolayers of Crandell-Rees Feline Kidney (CrFK) cells grown in 96-well plates (Greiner Cat #655090) in 100 μl/well M6B8 medium supplemented with 5% FCS and 0.15% NaHCO3 at a density of 2×10^5 cells/ml were infected with feline calicivirus (FCV) field strain 255 at multiplicities of infection of 0.01 and 0.001. NHC was added in ⅓ serial dilutions to the infected cells to yield a test concentration range of from 10 μM to 0.000508 μM and cultures were incubated for up to 48 hours at 37° C. and 5% C02. The extent of viral replication was assessed by determining the degree of FCV-induced cytopathic effect (CPE) using the CellTiterGlo® Luminescent Cell Viability Assay (Promega Cat #G7571) by adding the reagent 1:1 (v/v) to the culture plates that have been equilibrated to room temperature for 30 minutes. Plates were incubated for 10 minutes at room temperature and subsequently read for luminescence in a Biotek Cytation5. The effective concentration of NHC that reduced FCV replication by 50% (EC50) was calculated in a 4-parameter nonlinear regression model using GraphPad Prism 8.
A general note: In ATP-based viability assays light output follows the ATP content of the culture.

Assay [4] has as its system Porcine rotavirus A strain of serotype G5P7. Kind of assay: Anti-porcine rotavirus immunofluorescent assay in MA-104 cells, strain G5P7. The settings on record: MA104, 72 h, read-out: EC50, replication of porcine rotavirus reduced by half, G5P7 strain. The assay is classed as cell-based. As for the experimental part: (§1) Example 3 Anti-Porcine Rotavirus Activity of β-D-N(4)-Hydroxycytidine (NHC)
(§2) The anti-rotaviral activity of NHC against swine rotaviruses was tested in a cell culture-based assay. MA-104 (Rhesus monkey kidney tissue) cells were cultured and harvested according to standard procedures. The harvested MA-104 cell suspension was seeded onto 96-well plates (Greiner CELLSTAR® black, Sigma-Aldrich® M0562) in 200 μl/well M6B8 medium with 5% FBS at a density of 3×10^4 cells/mL. After 4 days of culturing, the monolayers were washed and the cells were infected with rotavirus A by adding 100 μl/well of 3630 TCID50/mL Porcine rotavirus A strain of serotype G5P7 (ATCC, VR-892) or strain G9P7 (MAH Worthington, USA). […] Replication inhibition of the Rotavirus A strains by NHC was quantified using a mouse-anti-Rotavirus A strain-specific monoclonal antibody (Ingenasa, #1JF10) followed by FITC-fluorochrome conjugated goat-anti-mouse antibody (Nordic) and DAPI (Sigma Aldrich) nuclear staining in an immunofluorescent assay. The extent of immunofluorescence was quantified as relative fluorescence units (RFU) at 485 nm excitation and 528 nm emission using a Cytation 5 cell imaging multimode reader and Gen5 software version 3.10 (Agilent BioTek). […]

Assay [5] deals with Porcine rotavirus A strain G9P7. Kind of assay: Anti-porcine rotavirus immunofluorescent assay in MA-104 cells, strain G9P7. The assay is classed as cell-based. The settings on record: MA104, 72 h, 3 days, immunofluorescence (FIG. 3b), read-out: EC50, replication of porcine rotavirus reduced by half, G9P7 strain. As for the experimental part:
as §1, §2

Assay [6] concerns swine influenza virus strain A/swine/Belgium/113/2013 (H3N2). Kind of assay: organism not typed. Format: cell-based. The following applies: MDCK, 24 h, read-out: EC50, replication of swine influenza virus reduced by half, H3N2 strain.
Assay [7] concerns swine influenza virus strain A/swine/MN/A01483170/2014 (H1N1 pdm). Kind of assay: microbe, parasite or virus in culture. Format: cell-based. The following applies: H1N1, MDCK, in Sus scrofa, 24 h, read-out: EC50, replication of swine influenza virus reduced by half, H1N1pdm strain.
In assay [8] the test system is cytopathic bovine viral diarrhea virus (BVDV) RNA. The settings on record: dose-dependent inhibition of BVDV RNA production; read-out: 90% effective concentration (EC90), production of cytopathic BVDV RNA; cited from earlier work.
The subject of assay [9] is bovine viral diarrhea virus (BVDV). The settings on record: BVDV virus yield; read-out: EC90, virus yield assays; cited from earlier work.
Setting [10] is: FIPV strain 79-1146 infected CRFK cells, 96 hrs, CPE by CellTiterGlo, read-out: EC 50.

pEC50: −log10 of the molar value. Like-named read-outs stand apart in the source and are kept apart here.

In the case of `CC(C)C[C@H](NC(=O)OCc1ccccc1)C(=O)N[C@@H](CC1CCNC1=O)C(O)S(=O)(=O)O` (stereo partly shown) [GC-376], the pEC50 in assay [1] (setting [10]) was 5.52 to 5.74.
Regarding `N#C[C@@]1(c2ccc3c(N)ncnn23)O[C@H](CO)[C@@H](O)[C@H]1O` [GS-441524], in [2], the “Inhibition of FIP virus (in words)” value is given as “strongly inhibit”.
Regarding `C[C@@]1(O)[C@H](O)[C@@H](CO)O[C@H]1n1ccc2c(N)ncnc21` [MK-0608], the pEC50 in [1] (setting [10]) is less than 4.52.
For `O=c1nc(NO)ccn1[C@@H]1O[C@H](CO)[C@@H](O)[C@H]1O` [NHC, 1-((2R,3R,4S,5R)-3,4-dihydroxy-5-(hydroxymethyl)tetrahydrofuran-2-yl)-4-(hydroxyamino)pyrimidin-2(1H)-one], the pEC50 was 6.43 to 6.48 in assay [1] (Alphacoronavirus 1, FIPV strain 79-1146 infected CRFK cells, 96 hrs, CPE by CellTiterGlo, read-out: EC 50); 5.42 in assay [3]; 5.59 in assay [4]; 5.72 in assay [5]; 5.89 in assay [6]; 5.28 in assay [7]. In addition, the “Antiviral dose response against FIPV infected feline kidney cells (in words)” value in [1] (FIG. 1, viral induced CPE) is listed as “protective against viral induced CytoPathic Effect (CPE) in a dose dependent manner”. The EC90 in [8] was 5400 nM; in [9] it was 2000 nM.
For the molecule `CCC(CC)COC(=O)[C@H](C)N[P@](=O)(OC[C@H]1O[C@@](C#N)(c2ccc3c(N)ncnn23)[C@H](O)[C@@H]1O)Oc1ccccc1` [Remdesivir], the pEC50 in assay [1] (Alphacoronavirus 1, CRFK, 96 h) is 6.01 to 6.13.
